According to patent publication US20230053328A9, “COMBINATION THERAPIES USING CDK INHIBITORS” (Pfizer Inc., priority 2019, published 2023):

System: MC38 syngeneic mouse tumor model
Assay: MC38 syngeneic mouse tumor model, tumor growth inhibition and survival (Example 1)
Type: in vivo
Protocol: MC38 cells were obtained from American Type Culture Collection (ATCC) and cultured in Roswell Park Memorial Institute (RPMI1640) supplemented with 10% fetal bovine serum (FBS). All cells were maintained in a humidified incubator at 37° C. with 5% carbon dioxide (CO2). Female C57/BL6 mice were obtained from Jackson Laboratories at 8 weeks of age. To generate the syngeneic model, 0.5 million MC38 tumor cells were subcutaneously implanted into the right flank of female C57/BL6 mice. Tumor bearing mice were randomized into six treatment groups based on average tumor sizes of approximately 70 mm^3 per group, on Day 9 post tumor cell implantation. […]
Tumor volumes were measured three times a week. Tumor volume was calculated based on two-dimensional caliper measurement with cubic millimeter volume calculated using the formula (length×width2)×0.5. […] Statistical significance determined using the Holm-Sidak method, with alpha=0.05.

Structure (SMILES): C[C@@]1(O)CCC[C@H]1n1c(=O)c(C(F)F)cc2cnc(NC3CCN(S(C)(=O)=O)CC3)nc21 [PF-06873600, 6-(difluoromethyl)-8-((1R,2R)-2-hydroxy-2-methylcyclopentyl)-2-(1-(methylsulfonyl)piperidin-4-ylamino)pyrido[2,3-d]pyrimidin-7(8H)-one]
- synergy with OX40/4-1BB immune checkpoint modulators (in words) (MC38 syngeneic mouse tumor model, example heading): Synergizes
- tumor growth inhibition (in words) (MC38 tumors in C57/BL6 mice, Day 27 post-treatment initiation): did not significantly inhibit tumor growth
